The values below come from patent publication US20080207710A1, “Insulin Secretagogue Drugs” (TOUDAI TLO, LTD., priority 2004, published 2008).

One test deals with obese animals. Conditions: cited from earlier work.
In test [1] the test system is pancreatic β cells (islets of Langerhans). In words: Glucose-stimulated insulin secretion from isolated islets of Langerhans. In kind it is cell-based, mouse. Conditions: for insulin secretion on stimulation with glucose: 24 hr with 10 or 100 nM GW501516, 16.7 mM glucose, 1 hr. Here is the method: Animals, 6-week-old male C57BL/6J and Lepr^db/Lepr^db mice, were purchased from Clea Japan, Inc., and kept under the following conditions: room temperature, 25° C.; humidity, 60±10%; and 12 hr light/dark cycles (light period, 08:00 to 20:00). All animals were tamed for one week and then subjected to tests. The animals were given free access to food (commercial lab chow, pellet form CE-2, Clea Japan, Inc.) and water. Male C57BL/6J and Lepr^db/Lepr^db mice were used. After clamping the common bile duct at a point close to the duodenum outlet under Nembutal anesthetization, 1 mg/mL collagenase (Wako Pure Chemical Industries, Ltd., Japan) was injected into the common bile duct at a liver side. The pancreas was taken out and incubated at 37° C. for 13 min. Thereafter, Hank's balanced salt solution was added, the pancreas tissue suspension was shaken and then centrifuged to remove supernatants. The pancreas tissue was resuspended in Hank's balanced salt solution, and then subjected to filtration followed by addition of Hank's balanced salt solution to make the tissue suspension volume 35 mL. The resultant tissue suspension was mixed and then allowed to stand for 5 min. Supernatants were removed with an aspirator except that 5 mL of the solution was retained, and the remaining solution was remixed with Hank's balanced salt solution to make the tissue suspension volume 35 mL. […] After incubation in a Krebs-Ringer bicarbonate buffer (KRBB, 119 mM NaCl, 4.74 mM KCl, 2.54 mM CaCl2, 1.19 mM MgCl2, 1.19 mM KH2PO4, 25 mM NaHCO3, and 10 mM HEPES, pH 7.4) containing 2.8 mM glucose at 37° C. for 1 hr, the islets of Langerhans were dispensed in a 24-well plate at 10 islets per well, and incubated in KRBB containing 2.8, 5.6 or 16.7 mM glucose, respectively, at 37° C. for 1 hr. Each supernatant sample collected was assayed for insulin with rat insulin [^125I] Biotrak Assay System (Amersham).

Turning to `Cc1cc(SCc2sc(-c3ccc(C(F)(F)F)cc3)nc2C)ccc1OCC(=O)O` [GW501516, 2-{2-methyl-4-[({4-methyl-2-[4-(trifluoromethyl)phenyl]-1,3-thiazol-5-yl}methyl)thio]phenoxy}acetic acid], the “effect on diabetes (plasma glucose and blood insulin levels)” value in the test with obese animals (genetically obese animals) was “improve diabetes as revealed by the decrease in plasma glucose and blood insulin levels”. Further, the “effect on obesity and insulin resistance” value in the test on obese animals (obese animals induced by high-fat dieting) is “ameliorate obesity and insulin resistance”. The “dose dependence of insulin secretion when stimulated with elevated glucose levels” value in test [1] (10 or 100 nM GW501516, elevated glucose levels) was “increased dose-dependently insulin secretion”. The “insulin secretion on stimulation with glucose” value in test [1] (islets from C57BL/6J mice) and in test [1] (islets from Lepr^db/Lepr^db mice) was “significant insulin secretion” throughout.
